{"source": "PubChem BioAssay AID2060886", "about": "(Molecular Pharmacology Branch, DTP, NCI, 2025)", "system": "653999-131-R-J2-PDC complex spheroids, growth inhibition", "assay": "Anticancer human tumor 653999-131-R-J2-PDC patient-derived lung adenocarcinoma cell line growth inhibition [RAS]", "conditions": "for IC50: curve of first compound; for viability, T/C: stronger effect = lower value", "method_in_brief": "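Multi-cell-type spheroids: tumor cells plus HUVEC endothelial cells and mesenchymal stem cells. RAS-pathway inhibitors were combined with targeted agents, each dosed in half-log steps down from clinical Cmax, or from 10 microM when Cmax was unknown.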", "key": {"[1]": {"conditions": "second compound 0.000949 µM, first compound 0.0316 µM"}, "[2]": {"conditions": "second compound 0.000949 µM, first compound 0.1 µM"}, "[3]": {"conditions": "second compound 0.000949 µM, first compound 0.316 µM"}, "[4]": {"conditions": "second compound 0.000949 µM, first compound 1 µM"}, "[5]": {"conditions": "second compound 0.003 µM, first compound 0.0316 µM"}, "[6]": {"conditions": "second compound 0.003 µM, first compound 0.1 µM"}, "[7]": {"conditions": "second compound 0.003 µM, first compound 0.316 µM"}, "[8]": {"conditions": "second compound 0.003 µM, first compound 1 µM"}, "[9]": {"conditions": "second compound 0.00949 µM, first compound 0.0316 µM"}, "[10]": {"conditions": "second compound 0.00949 µM, first compound 0.1 µM"}, "[11]": {"conditions": "second compound 0.00949 µM, first compound 0.316 µM"}, "[12]": {"conditions": "second compound 0.00949 µM, first compound 1 µM"}, "[13]": {"conditions": "second compound 0.03 µM, first compound 0.0316 µM"}, "[14]": {"conditions": "second compound 0.03 µM, first compound 0.1 µM"}, "[15]": {"conditions": "second compound 0.03 µM, first compound 0.316 µM"}, "[16]": {"conditions": "second compound 0.03 µM, first compound 1 µM"}, "[17]": {"conditions": "second compound 0.0949 µM, first compound 0.0316 µM"}, "[18]": {"conditions": "second compound 0.0949 µM, first compound 0.1 µM"}, "[19]": {"conditions": "second compound 0.0949 µM, first compound 0.316 µM"}, "[20]": {"conditions": "second compound 0.0949 µM, first compound 1 µM"}, "[21]": {"conditions": "second compound 0.3 µM, first compound 0.0316 µM"}, "[22]": {"conditions": "second compound 0.3 µM, first compound 0.1 µM"}, "[23]": {"conditions": "second compound 0.3 µM, first compound 0.316 µM"}, "[24]": {"conditions": "second compound 0.3 µM, first compound 1 µM"}}, "data": [{"molecule": "Nc1ccn(C2OC(CO)C(O)C2(F)F)c(=O)n1", "note": "(centres undefined) + CCn1c(-c2cccnc2C(C)OC)c2c3cc(ccc31)N1CCOC(CC(NC(=O)C(C(C)C)N(C)C(=O)C3(F)CCN(C(=O)C#CC(C)(C)N(C)C)CC3)C(=O)N3CCCC(N3)C(=O)OCC(C)(C)C2)C1;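 further: spheroids exposed to the agents for seven days before the readout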", "values": [{"measurement": "IC50", "setting": "second compound 0.000949 µM", "result": 70.6, "unit": "nM"}, {"measurement": "IC50", "setting": "second compound 0.003 µM", "result": 66.1, "unit": "nM"}, {"measurement": "IC50", "setting": "second compound 0.00949 µM", "result": 61.9, "unit": "nM"}, {"measurement": "IC50", "setting": "second compound 0.03 µM", "result": 64.4, "unit": "nM"}, {"measurement": "IC50", "setting": "second compound 0.0949 µM", "result": 42.5, "unit": "nM"}, {"measurement": "IC50", "setting": "second compound 0.3 µM", "result": 59.3, "unit": "nM"}, {"measurement": "viability, T/C", "setting": "second compound 0.000949 µM, first compound 0.00316 µM", "result": 93.8, "unit": "%"}, {"measurement": "viability, T/C", "setting": "second compound 0.000949 µM, first compound 0.01 µM", "result": 74.9, "unit": "%"}, {"measurement": "viability, T/C", "setting": "[1]", "result": 59.8, "unit": "%"}, {"measurement": "viability, T/C", "setting": "[2]", "result": 41.4, "unit": "%"}, {"measurement": "viability, T/C", "setting": "[3]", "result": 49.4, "unit": "%"}, {"measurement": "viability, T/C", "setting": "[4]", "result": 37.4, "unit": "%"}, {"measurement": "viability, T/C", "setting": "second compound 0.003 µM, first compound 0.00316 µM", "result": 110, "unit": "%"}, {"measurement": "viability, T/C", "setting": "second compound 0.003 µM, first compound 0.01 µM", "result": 74.8, "unit": "%"}, {"measurement": "viability, T/C", "setting": "[5]", "result": 57.9, "unit": "%"}, {"measurement": "viability, T/C", "setting": "[6]", "result": 44.7, "unit": "%"}, {"measurement": "viability, T/C", "setting": "[7]", "result": 44, "unit": "%"}, {"measurement": "viability, T/C", "setting": "[8]", "result": 36.1, "unit": "%"}, {"measurement": "viability, T/C", "setting": "second compound 0.00949 µM, first compound 0.00316 µM", "result": 93.1, "unit": "%"}, {"measurement": "viability, T/C", "setting": "second compound 0.00949 µM, first compound 0.01 µM", "result": 67.1, "unit": "%"}, {"measurement": "viability, T/C", "setting": "[9]", "result": 59.7, "unit": "%"}, {"measurement": "viability, T/C", "setting": "[10]", "result": 45.5, "unit": "%"}, {"measurement": "viability, T/C", "setting": "[11]", "result": 36.9, "unit": "%"}, {"measurement": "viability, T/C", "setting": "[12]", "result": 38.2, "unit": "%"}, {"measurement": "viability, T/C", "setting": "second compound 0.03 µM, first compound 0.00316 µM", "result": 93.8, "unit": "%"}, {"measurement": "viability, T/C", "setting": "second compound 0.03 µM, first compound 0.01 µM", "result": 66.9, "unit": "%"}, {"measurement": "viability, T/C", "setting": "[13]", "result": 57.7, "unit": "%"}, {"measurement": "viability, T/C", "setting": "[14]", "result": 50.3, "unit": "%"}, {"measurement": "viability, T/C", "setting": "[15]", "result": 36, "unit": "%"}, {"measurement": "viability, T/C", "setting": "[16]", "result": 31.8, "unit": "%"}, {"measurement": "viability, T/C", "setting": "second compound 0.0949 µM, first compound 0.00316 µM", "result": 94.5, "unit": "%"}, {"measurement": "viability, T/C", "setting": "second compound 0.0949 µM, first compound 0.01 µM", "result": 64.9, "unit": "%"}, {"measurement": "viability, T/C", "setting": "[17]", "result": 53.8, "unit": "%"}, {"measurement": "viability, T/C", "setting": "[18]", "result": 45.6, "unit": "%"}, {"measurement": "viability, T/C", "setting": "[19]", "result": 37.2, "unit": "%"}, {"measurement": "viability, T/C", "setting": "[20]", "result": 33.2, "unit": "%"}, {"measurement": "viability, T/C", "setting": "second compound 0.3 µM, first compound 0.00316 µM", "result": 91.5, "unit": "%"}, {"measurement": "viability, T/C", "setting": "second compound 0.3 µM, first compound 0.01 µM", "result": 78.3, "unit": "%"}, {"measurement": "viability, T/C", "setting": "[21]", "result": 62.2, "unit": "%"}, {"measurement": "viability, T/C", "setting": "[22]", "result": 40.1, "unit": "%"}, {"measurement": "viability, T/C", "setting": "[23]", "result": 33.3, "unit": "%"}, {"measurement": "viability, T/C", "setting": "[24]", "result": 33.5, "unit": "%"}]}, {"molecule": "CC(=O)OC12COC1CC(O)C1(C)C(=O)C(O)C3=C(C)C(OC(=O)C(O)C(NC(=O)OC(C)(C)C)c4ccccc4)CC(O)(C(OC(=O)c4ccccc4)C21)C3(C)C", "note": "(centres undefined) + CCn1c(-c2cccnc2C(C)OC)c2c3cc(ccc31)N1CCOC(CC(NC(=O)C(C(C)C)N(C)C(=O)C3(F)CCN(C(=O)C#CC(C)(C)N(C)C)CC3)C(=O)N3CCCC(N3)C(=O)OCC(C)(C)C2)C1", "values": [{"measurement": "IC50", "setting": "second compound 0.000949 µM", "result": "> 10000", "unit": "nM"}, {"measurement": "IC50", "setting": "second compound 0.003 µM", "result": "> 10000", "unit": "nM"}, {"measurement": "IC50", "setting": "second compound 0.00949 µM", "result": "> 10000", "unit": "nM"}, {"measurement": "IC50", "setting": "second compound 0.03 µM", "result": "> 10000", "unit": "nM"}, {"measurement": "IC50", "setting": "second compound 0.0949 µM", "result": "> 10000", "unit": "nM"}, {"measurement": "IC50", "setting": "second compound 0.3 µM", "result": "< 31.6", "unit": "nM"}, {"measurement": "viability, T/C", "setting": "[1]", "result": 52.5, "unit": "%"}, {"measurement": "viability, T/C", "setting": "[2]", "result": 52.7, "unit": "%"}, {"measurement": "viability, T/C", "setting": "[3]", "result": 57.8, "unit": "%"}, {"measurement": "viability, T/C", "setting": "[4]", "result": 62.2, "unit": "%"}, {"measurement": "viability, T/C", "setting": "second compound 0.000949 µM, first compound 3.16 µM", "result": 62.3, "unit": "%"}, {"measurement": "viability, T/C", "setting": "second compound 0.000949 µM, first compound 10 µM", "result": 66.6, "unit": "%"}, {"measurement": "viability, T/C", "setting": "[5]", "result": 59.5, "unit": "%"}, {"measurement": "viability, T/C", "setting": "[6]", "result": 53.2, "unit": "%"}, {"measurement": "viability, T/C", "setting": "[7]", "result": 53.8, "unit": "%"}, {"measurement": "viability, T/C", "setting": "[8]", "result": 59.7, "unit": "%"}, {"measurement": "viability, T/C", "setting": "second compound 0.003 µM, first compound 3.16 µM", "result": 70.7, "unit": "%"}, {"measurement": "viability, T/C", "setting": "second compound 0.003 µM, first compound 10 µM", "result": 76.9, "unit": "%"}, {"measurement": "viability, T/C", "setting": "[9]", "result": 60.5, "unit": "%"}, {"measurement": "viability, T/C", "setting": "[10]", "result": 59.7, "unit": "%"}, {"measurement": "viability, T/C", "setting": "[11]", "result": 53.1, "unit": "%"}, {"measurement": "viability, T/C", "setting": "[12]", "result": 58.7, "unit": "%"}, {"measurement": "viability, T/C", "setting": "second compound 0.00949 µM, first compound 3.16 µM", "result": 66.3, "unit": "%"}, {"measurement": "viability, T/C", "setting": "second compound 0.00949 µM, first compound 10 µM", "result": 67.2, "unit": "%"}, {"measurement": "viability, T/C", "setting": "[13]", "result": 57.6, "unit": "%"}, {"measurement": "viability, T/C", "setting": "[14]", "result": 59.9, "unit": "%"}, {"measurement": "viability, T/C", "setting": "[15]", "result": 56.1, "unit": "%"}, {"measurement": "viability, T/C", "setting": "[16]", "result": 54.5, "unit": "%"}, {"measurement": "viability, T/C", "setting": "second compound 0.03 µM, first compound 3.16 µM", "result": 68, "unit": "%"}, {"measurement": "viability, T/C", "setting": "second compound 0.03 µM, first compound 10 µM", "result": 64.2, "unit": "%"}, {"measurement": "viability, T/C", "setting": "[17]", "result": 53.6, "unit": "%"}, {"measurement": "viability, T/C", "setting": "[18]", "result": 55, "unit": "%"}, {"measurement": "viability, T/C", "setting": "[19]", "result": 52.3, "unit": "%"}, {"measurement": "viability, T/C", "setting": "[20]", "result": 58.5, "unit": "%"}, {"measurement": "viability, T/C", "setting": "second compound 0.0949 µM, first compound 3.16 µM", "result": 61, "unit": "%"}, {"measurement": "viability, T/C", "setting": "second compound 0.0949 µM, first compound 10 µM", "result": 65.1, "unit": "%"}, {"measurement": "viability, T/C", "setting": "[21]", "result": 45.6, "unit": "%"}, {"measurement": "viability, T/C", "setting": "[22]", "result": 49.8, "unit": "%"}, {"measurement": "viability, T/C", "setting": "[23]", "result": 41, "unit": "%"}, {"measurement": "viability, T/C", "setting": "[24]", "result": 52.1, "unit": "%"}, {"measurement": "viability, T/C", "setting": "second compound 0.3 µM, first compound 3.16 µM", "result": 53.7, "unit": "%"}, {"measurement": "viability, T/C", "setting": "second compound 0.3 µM, first compound 10 µM", "result": 60.3, "unit": "%"}]}]}
